SMILES strings stand for the structures.

The values below come from publication PMC6391970, “Design, Synthesis and Characterization of Covalent KDM5 Inhibitors” (Angewandte Chemie (International Ed. in English), 2018).

The target of the test is T1, KDM4B (Homo sapiens, UniProt O94953).
T1 sequence (O94953 1-1096): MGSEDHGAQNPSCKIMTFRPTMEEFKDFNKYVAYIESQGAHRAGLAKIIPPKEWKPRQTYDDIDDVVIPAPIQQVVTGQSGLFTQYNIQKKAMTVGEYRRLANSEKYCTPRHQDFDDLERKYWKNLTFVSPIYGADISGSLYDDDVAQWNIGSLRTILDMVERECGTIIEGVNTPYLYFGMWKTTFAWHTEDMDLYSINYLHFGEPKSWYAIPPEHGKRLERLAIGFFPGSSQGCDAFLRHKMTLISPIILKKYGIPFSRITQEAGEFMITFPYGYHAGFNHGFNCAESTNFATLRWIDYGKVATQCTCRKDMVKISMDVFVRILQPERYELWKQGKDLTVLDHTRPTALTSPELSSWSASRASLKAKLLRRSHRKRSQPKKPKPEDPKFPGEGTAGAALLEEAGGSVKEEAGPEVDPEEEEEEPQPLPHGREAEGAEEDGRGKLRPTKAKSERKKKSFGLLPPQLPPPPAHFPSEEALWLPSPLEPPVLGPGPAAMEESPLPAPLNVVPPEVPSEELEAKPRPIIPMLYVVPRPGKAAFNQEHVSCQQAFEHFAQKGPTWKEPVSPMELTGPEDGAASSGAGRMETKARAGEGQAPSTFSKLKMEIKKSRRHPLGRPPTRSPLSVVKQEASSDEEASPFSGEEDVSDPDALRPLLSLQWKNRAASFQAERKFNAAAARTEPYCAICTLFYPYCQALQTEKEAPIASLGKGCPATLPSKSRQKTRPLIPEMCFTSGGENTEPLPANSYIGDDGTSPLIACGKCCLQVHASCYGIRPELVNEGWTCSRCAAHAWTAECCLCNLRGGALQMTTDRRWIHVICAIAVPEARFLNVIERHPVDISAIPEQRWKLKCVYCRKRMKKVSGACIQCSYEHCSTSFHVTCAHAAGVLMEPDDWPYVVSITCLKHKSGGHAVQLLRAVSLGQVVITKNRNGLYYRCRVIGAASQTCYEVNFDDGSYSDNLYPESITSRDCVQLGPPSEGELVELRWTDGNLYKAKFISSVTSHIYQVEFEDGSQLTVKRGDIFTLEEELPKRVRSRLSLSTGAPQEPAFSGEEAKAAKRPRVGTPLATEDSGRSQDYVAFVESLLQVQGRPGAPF
Briefly: KDM AlphaScreen selectivity panel, KDM4B. The format is biochemical. The conditions noted are these: for IC50: AlphaScreen after 120 min pre-incubation, read-out: KDM IC50 4B; for SI over KDM5B, 4B: KDM4B IC50/KDM5B IC50. The protocol: A panel of JmjC KDMs was tested by AlphaScreen to determine the selectivity of the compounds (Table S2). […]
KDM alpha screen selectivity
Inhibition of histone demethylases was assessed using the histone demethylase AlphaScreen assay (Amplified Luminescence Proximity Homogenous Assay) as previously reported.[4] The basis of this assay for lysine demethylases have been widely described.[5] In brief, the assay was performed in 384-well plate format using white proxiplates (PerkinElmer), and transfer of titrations of compounds (100 nl) was performed using an ECHO 550 acoustic dispenser […]
Tween- 20) containing the appropriate demethylase enzyme (see Supplementary table 1 for final concentrations) was transferred to each well of a 384-well proxiplate with a Multidrop™ Combi Reagent Dispenser, and the enzymes allowed to pre-incubate for 120 minutes with compound (final concentration of DMSO was 1%). After that time, the enzyme reaction was initiated by addition of 5 µl of a substrate mix consisting of Ketoglutarate (2-OG), Ferrous Ammonium Sulphate (FAS), L-Ascorbic Acid (LAA) and biotinylated peptide substrate (see Supporting table X for final assay concentrations) and the reaction incubated for the indicated time at room temperature. Reaction was stopped by the addition of 5 μl of assay buffer containing EDTA (7.5 mM) and NaCl (400 mM). Streptavidin Donor beads (0.08 mg/ml) and Protein-A conjugated acceptor beads (0.08 mg/ml) (AlphaScreen General IgG detection kit was from Perkin Elmer) were pre-incubated for 1 hour with an antibody to the product methyl mark (Supplementary Table 1) and the presence of biotin-H3-product was detected by addition of 5 µl of the pre-incubated AlphaScreen beads (final concentrations of 0.02 mg/ml with respect to acceptor and donor beads). Detection was allowed to proceed for 2 hour at room temperature and the assay plates read in a BMG Labtech Pherastar FS plate reader (excitation, 680 nm; emission, 570 […]
IC50(t) = Ki (1 + K ) . ( η . k .t − 1) (1) […]
Table S4. AlphaScreen assay conditions for the KDM selectivity panel

In general, IC50 refers to the concentration that gives 50% inhibition. As to `C=CC(=O)Nc1cccc(CN(C)CCc2cnn(-c3nccc4c(=O)[nH]cnc34)c2)c1` [Compound 4], the half-inhibitory concentration (IC50) stood at 1.1 ± 0.1 µM.

As for `CN(CCc1cnn(-c2nccc3c(=O)[nH]cnc23)c1)Cc1cccc(NC(=O)CCl)c1` [Compound 5], the “selectivity over KDM4B” value is listed as “more than 60 fold”; the 50% inhibitory concentration (IC50) came out at 0.7 ± 0.2 µM; the “SI over KDM5B, 4B” value is given as 68.

For the molecule `CN(C)C/C=C/C(=O)Nc1cccc(CN(C)CCc2cnn(-c3nccc4c(=O)[nH]cnc34)c2)c1` [Compound 6], the concentration for half-maximal inhibition (IC50) was found to be 1.9 ± 0.1 µM.

Consider `CC(C)c1c(-c2cnn(CCNC(=O)CCl)c2)[nH]c2c(C#N)cnn2c1=O` [Compound 7], for which the “selectivity over KDM4B” value was above 500 fold; the IC50 was 4.1 ± 0.2 µM; the “SI over KDM5B, 4B” value is reported as 572.

Regarding `C=CC(=O)NCCOc1ccc(-c2[nH]c3c(C#N)cnn3c(=O)c2C(C)C)cc1` [Compound 9], the 50% inhibitory concentration (IC50) stood at 6.3 ± 0.6 µM and the “SI over KDM5B, 4B” value is 97.

With `C=CC(=O)N1CCC(n2cc(-c3[nH]c4c(C#N)cnn4c(=O)c3C(C)C)cn2)CC1` [Compound 10], the “selectivity over KDM4B” value is given as above 500 fold; the IC50 came out at 14.2 ± 1.1 µM; the “SI over KDM5B, 4B” value amounted to 831.

Turning to `CC(C)c1c(-c2cnn(C3CCN(C(=O)CCl)CC3)c2)[nH]c2c(C#N)cnn2c1=O` [Compound 11], the half-maximal inhibitory concentration (IC50) came to 4.6 ± 0.1 µM and the “SI over KDM5B, 4B” value is reported as 513.
